The source of these data is article PMC7608335 (Acta Pharmacologica Sinica, 2020).

For experiment [1], the target named is T1, CaV1.2 channel (α1C subunit) (Rattus norvegicus, UniProt P22002). Put plainly: whole-cell patch clamp. It is filed as cell-based. Conditions: read-out: % of control at 100 nM. Background: Patch clamp records ionic current or voltage across a cell membrane.
The target in experiment [2] is T1, CaV1.2 channel (α1C subunit). Put plainly: whole-cell patch clamp of ICa1.[…]. It is filed as cell-based. Conditions: read-out: % inhibition at 100 μM.

For the compound `COC(=O)C1=C(C)NC(C)=C([N+](=O)[O-])[C@H]1c1ccccc1C(F)(F)F` [Bay K 8644, (S)-(-)-methyl-1,4-dihydro-2,6-dimethyl-3-nitro-4-(2-trifluoromethylphenyl)pyridine-5-carboxylate], in experiment [1], the remaining activity at 0.1 µM stood at 524%.
For orientation: inhibition means the percentage by which the read-out fell short of the control. For the compound `O=C(c1ccc(F)cc1)C1CCN(CCn2c(=O)[nH]c3ccccc3c2=O)CC1` [ketanserin, 3-[2-[4-(4-fluorobenzoyl)piperidin-1-yl]ethyl]-1H-quinazoline-2,4-dione], the inhibition at 100 µM in experiment [2] is approximately 50%.
